# Experimental data: PubChem BioAssay (NCI)
#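 Compound exposure: 48 hours, 5 concentrations, 96-well plates. GI50: concentration for 50% inhibition of growth. TGI: total growth inhibition.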
# Assays:
# Experiment in all cases: inhibition of tumour cell growth, NCI panel, 48 h
# 786-0 renal = system: 786-0 renal
# DU-145 prostate = system: DU-145 prostate
# NCI-H460 lung = system: NCI-H460 lung
# SF-268 CNS = system: SF-268 CNS
# SK-MEL-5 melanoma = system: SK-MEL-5 melanoma
# SR leukemia = system: SR leukemia
# NCI-H226 lung = system: NCI-H226 lung
SMILES,TGI (786-0 renal) [µM],TGI (DU-145 prostate) [µM],TGI (NCI-H460 lung) [µM],TGI (SF-268 CNS) [µM],TGI (SK-MEL-5 melanoma) [µM],TGI (SR leukemia) [µM],TGI (NCI-H226 lung) [µM],GI50 (DU-145 prostate) [µM],GI50 (NCI-H460 lung) [µM],GI50 (SF-268 CNS) [µM],GI50 (SK-MEL-5 melanoma) [µM],GI50 (SR leukemia) [µM]
O=C(NCCN1CCCCC1)c1ccc(Br)cc1,> 100,> 100,> 100,> 100,> 100,> 100,,,,,,
O=[N+]([O-])c1ccc(SN=S=NSc2cccc(SN=S=NSc3ccc([N+](=O)[O-])cc3)c2)cc1,27.2,,> 100,> 100,> 100,> 100,,,,,,
C=CCCC1(O)C(O)C(CO)O[C@H](O[C@@]2(CO)OC(CO)C(O)C2O)C1O (stereo partly specified),> 100,> 100,> 100,> 100,> 100,> 100,> 100,,,,,
CCS(=O)C(=O)N(O)c1ccc(Cl)cc1 (stereo unspecified),64.3,> 100,,55.4,74.1,,> 100,,,,,
CCCCOCCOCCOC1=CC(=O)c2c(O)ccc(O)c2C1=O,2.95,3.1,3.69,> 10,2.25,> 10,3.59,,,,,
Brc1ccc(C2C3CSc4ccccc4C3=NN2c2ccccc2)cc1 (stereo unspecified),> 100,> 100,> 100,> 100,> 100,> 100,> 100,,,,,
CCOC(=O)N/N=C(/N)c1cccc(Br)c1,> 100,> 100,> 100,> 100,> 100,> 100,,,,,,
Clc1ccc(Cl)c(N=Nc2cc3c4c(c2)CCN4CCC3)c1,> 10,> 10,> 10,> 10,> 10,> 10,> 10,,,,,
Clc1ccc(Nc2nnc(CNc3ccc(-c4nnc(Nc5ccc(Cl)cc5)s4)cc3)s2)cc1,75.1,> 100,> 100,> 100,79.3,,> 100,,,,,
CS(=O)(=O)N1CC(CCl)c2ccc(NO)cc21 (stereo unspecified),28,> 100,34.4,22.5,28.2,,> 78,,,,,
COC1(CC[C@@H](C)COC2OC(CO)C(O)C(O)C2O)O[C@H]2C[C@H]3[C@@H]4CC=C5C[C@@H](OC6OC(CO)C(OC7OC(C)C(O)C(O)C7O)C(O)C6OC6OC(C)C(O)C(O)C6O)CC[C@]5(C)[C@H]4CC[C@]3(C)[C@H]2[C@@H]1C (stereo partly specified),4.02,4.17,5.43,6.76,12.2,,15.3,1.92,1.62,2.38,3.51,2.96
CCc1n[nH]c(=O)n1CCCCCCCCn1c(CC)n[nH]c1=O,> 100,,> 100,> 100,> 100,> 100,> 100,,,,,
COc1ccc(Nc2nc3ccccc3n3cccc23)cc1OC,35,35.6,27.5,53.3,24.2,37.7,,,,,,
O=c1[nH]/c(=C/c2ccc3c(c2)OCO3)c(=O)[nH]/c1=C/c1ccc2c(c1)OCO2,> 10,> 10,> 10,> 10,> 10,,> 10,,,,,
O=C1NC2NC3NC(=O)NC3NC2N1 (stereo unspecified),> 100,> 100,,,> 100,> 100,> 100,,,,,
